{"source": "patent US20200181284A1", "about": "“EPIGENETIC INHIBITORS FOR SENSITIZING HEMATOLOGIC OR OTHER MALIGNANCIES TO GLUCOCORTICOID THERAPY” (UNIVERSITY OF SOUTHERN CALIFORNIA, priority 2017, published 2020)", "key": {"G9a methylation": {"test_system": "G9a methylation", "assay": "G9a methylation level in NALM6 cells treated with KDM inhibitors", "assay_type": "cell-based, human", "excerpt": "There are two distinct families of KDM with distinct catalytic mechanisms (FIG. 50B). We tested one inhibitor for each family: OG-L002 inhibits the two members of the LSD family of KDM, and JIB-04 inhibits several members of the large JmjC family of KDM, including members of the KDM2, KDM3, and KDM4 subfamilies. We propose that there is an equilibrium between the enzymes that methylate G9a and GLP (in this case they methylate themselves) and the KDM enzymes to maintain a moderate level of G9a/GLP methylation (FIGS. 50C-1, 50C-2), and that inhibition of the KDMs that normally demethylate G9a and GLP (currently unknown) will increase the level of G9a/GLP methylation and thereby enhance the coactivator activity of G9a/GLP, the GC activation of the cell death genes, and GC-induced cell death in B-ALL cells. Thus, as a first step to identify the G9a/GLP-specific demethylases, we treated NALM6 cells with the two inhibitors named above. OG-L002 had no effect on the level of G9a methylation, but JIB-04 increased the level of G9a methylation in NALM6 cells (FIG. 50D)."}, "NALM6 cells": {"test_system": "NALM6 cells", "assay": "Immunoblot of apoptosis markers (cleaved caspase 3, caspase 7, PARP1) in NALM6 cells", "assay_type": "cell-based, human", "settings": "NALM6, 24-hour treatment with KDM inhibitor", "description": "Cells were treated as indicated, and cell extracts were prepared in RIPA buffer ([…] Tris-HCl, pH 8, 150 mM NaCL, 1 mM EDTA, 1% NP-40, and 0.25% deoxycholate) supplemented with protease inhibitor tablets (Roche Molecular Biochemicals) and phosphatase inhibitors (1 mM NaF, 1 mM Na3VO4, and 1 mM β-glycerophosphate). Protein extracts were incubated overnight at 4° C. with shaking with 1 μg of antibodies against EHMT2 (Sigma G6919), EHMT1 (Millipore 09-078), or pan phospho-threonine (Millipore AB1607). Protein A/G plus agarose beads (Santa Cruz sc-2003) were added, and the mixture was incubated 2 h at 4° C. The immunoprecipitates were separated on SDS-PAGE. […]\nFIGS. 40A, 40B, 40C, 40D-1, 40D-2, 40D-3, and 40D-4 show Aurora kinase B inhibitors sensitizing NALM6 cells to GC-induced cell death. As shown in FIGS. 40A and 40B, NALM6 cells were treated with the indicated dex concentration in addition to 0.75 μM ZM447439 (FIG. 40A), 16 nM AZD2811 (FIG. 40B), or equivalent volume of vehicle DMSO for 72 h, and cell survival was measured by a fluorescence metabolic assay. In each condition, the value measured with dex was normalized to the fluorescence value measured with ethanol. Percentage of survival is shown as the mean±SEM of 4 independent experiments and p-values for individual dex concentrations were calculated using a paired t-test. *p≤0.05, **p≤0.01, * * *p≤0.001. […]"}, "[1]": {"test_system": "lung, breast and glioblastoma cancers", "settings": "dosages of 5-50 mg/kg; cited from earlier work"}, "hG9a": {"target": "T1, hG9a (Homo sapiens, UniProt Q96KQ7)", "T1 construct": "transfected with a plasmid encoding full length HA-hG9a and treated with 2 μM UNC0646; expressed in transfected cells; host or cells: Cos-7", "T1 sequence (Q96KQ7 1-280)": "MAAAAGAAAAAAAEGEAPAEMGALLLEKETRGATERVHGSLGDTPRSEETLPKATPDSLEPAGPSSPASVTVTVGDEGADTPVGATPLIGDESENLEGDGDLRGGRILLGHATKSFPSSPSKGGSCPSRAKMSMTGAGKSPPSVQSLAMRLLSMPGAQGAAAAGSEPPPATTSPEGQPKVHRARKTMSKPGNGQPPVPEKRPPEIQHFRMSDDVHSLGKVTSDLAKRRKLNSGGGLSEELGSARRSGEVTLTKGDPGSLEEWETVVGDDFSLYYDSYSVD", "assay": "Methylation of HA-hG9a in Cos-7 cells (pan met-K immunoprecipitation/immunoblot)", "assay_type": "cell-based, African green monkey", "settings": "Cos-7 cells expressing HA-hG9a N, 2 μM, 24 h", "experimental": "Cells were transiently transfected (where indicated) using Lipofectamine 2000 (Invitrogen) with 5 μg each of the indicated plasmids according to the manufacturer's protocol. […] Protein extracts were incubated with 1 μg of the indicated primary antibodies overnight at 4° C. with shaking. Protein A/G Plus Agarose (Santa Cruz sc-2003) beads were added and the mixture was incubated 2 hr at 4° C. The immunoprecipitates were separated on SDS-PAGE. Immunoblotting was conducted with primary antibodies against HA epitope (3F10 Roche Applied Science); G9a (G6919), FLAG (F1804), (3-actin (A5441), or GAPDH (G9545) from Sigma; aurora kinase B (ab2254), HP1γ (ab10480), HP1γ (ab56978), phospho-593-HP1γ (ab45270) or pan methyllysine (ab23366) from Abcam; GR (sc-8992) from Santa Cruz; GLP (09-078), or pan phospho-threonine (AB1607) from Millipore; phospho-S211-GR (#4161), H3K9me3 (#13969), H3S10ph (#53348), Histone H3 (#4499) from Cell signaling; or E-cadherin (610182) from BD transduction laboratories. Secondary antibodies from Santa Cruz Biotechnology (anti-rat) and Promega (anti-rabbit and anti-mouse) were used for chemiluminescence detection using Super Signal West Dura (Thermo Scientific) for proteins with low expression levels and ECL prime detection reagent (Amersham) for all other proteins according to the manufacturers' instructions. In immunoprecipitation experiments 3% of the input of each sample was analyzed by immunoblot using the antibodies listed.\nLysates were immunoprecipitated (IP) with pan met-K antibody and immunoblotted with HA antibody (top), or the usage of the two antibodies was reversed (bottom). Expression of HA-tagged proteins and β-actin (loading control) in the unfractionated extracts is shown at the bottom (Input). For FIG. 17D, Cos-7 cells were transfected with a plasmid encoding full length HA-hG9a and treated with 2 μM UNC0646 or vehicle DMSO for 24 h. Lysates were immunoprecipitated with pan met-K antibody and immunoblotted with HA antibody (top), or the usage of the two antibodies was reversed (bottom).\nLysates were immunoprecipitated with pan met-K antibody and immunoblotted with HA antibody (top)."}, "[2]": {"test_system": "interaction between HP1γ and G9a", "assay": "Co-immunoprecipitation of HA-hG9a with HP1γ in Cos-7 cells", "assay_type": "cell-based, African green monkey", "settings": "2 μM, 24 h", "description": "Cos-7 or A549 cells were seeded on 10-cm dishes the day before transfection. Cells were transiently transfected (where indicated) using Lipofectamine 2000 (Invitrogen) with 5 μg each of the indicated plasmids according to the manufacturer's protocol. At 48 h after transfection, cells were treated (or not) with dex for the indicated time period, and cell extracts were prepared in RIPA buffer (50 mM Tris-HCl, pH 8, 150 mM NaCl, 1 mM EDTA, 1% NP-40 and 0.25% deoxycholate) supplemented with protease inhibitor tablets (Roche Molecular Biochemicals) and phosphatase inhibitors (1 mM NaF, 1 mM Na3VO4 and 1 mM β-glycerophosphate). Protein extracts were incubated with 1 μg of the indicated primary antibodies overnight at 4° C. with shaking. Protein A/G Plus Agarose (Santa Cruz sc-2003) beads were added and the mixture was incubated 2 hr at 4° C. The immunoprecipitates were separated on SDS-PAGE. […] In immunoprecipitation experiments 3% of the input of each sample was analyzed by immunoblot using the antibodies listed. […]"}}, "data": [{"smiles": "Clc1ccc(N/N=C(\\c2ccccc2)c2ccccn2)nc1", "note": "[JIB-04, 5-chloro-N-[(E)-[phenyl(pyridin-2-yl)methylidene]amino]pyridin-2-amine]", "values": [{"measurement": "level of G9a methylation", "setting": "G9a methylation", "value": "increased"}, {"measurement": "dex-induced cleavage of caspase-3, caspase-7, and PARP1", "setting": "NALM6 cells", "value": "enhanced"}, {"measurement": "efficacy in mouse xenograft models", "setting": "[1]", "value": "effective"}]}, {"smiles": "COc1cc2c(NC3CCN(C4CCCCC4)CC3)nc(N3CCCN(C(C)C)CC3)nc2cc1OCCCN1CCCCC1", "note": "[UNC0646]", "values": [{"measurement": "methylation of the N-terminal G9a fragment", "setting": "hG9a", "value": "decreased"}]}, {"smiles": "COc1cc2c(Nc3ccc(NC(=O)c4ccccc4)cc3)ncnc2cc1OCCCN1CCOCC1", "note": "[ZM447439, N-[4-[[6-methoxy-7-(3-morpholin-4-ylpropoxy)quinazolin-4-yl]amino]phenyl]benzamide]", "values": [{"measurement": "interaction between HP1γ and G9a", "setting": "[2]", "value": "increased"}]}]}
